What was measured:
[1] = Thermal stability of the oxycarbonyl-substituted piperazine derivative (standing at temperature, liquid chromatography purity); type: physicochemical
Experimental: It was confirmed that the stability of the compound is greatly affected by the temperature and the heating time period.
It was noticed that when, for example, 1-benzyloxycarbonyl-3-methylpiperazine with a purity of 99.3 liquid chromatography area % was allowed to stand at 120° C., 160° C. or 200° C. for 12 hours, their liquid chromatography purity declined to 99.0 liquid chromatography area %, 95.6 liquid chromatography area % and 59.7 liquid chromatography area % respectively, and that the liquid chromatography purity of 1-benzyl-4-benzyloxycarbonyl-2-methylpiperazine corresponding to the compound represented by the general formula (7) rose to 0.2 liquid chromatography area %, 3.2 liquid chromatography area % and 30.7 liquid chromatography area % respectively.
Furthermore, when the compound was allowed to stand at 160° C. for 1 hour, the purity was 98.8 liquid chromatography area %, and it can be seen that the decomposition rate was small compared with the case of 12 hours.
For measuring the contents of the impurities contained in the oxycarbonyl-substituted piperazine derivative represented by the general formula (2), liquid chromatography is used. The analytical column for liquid chromatography used for analysis is a column using an octadecyl -based composition as a packing material. Particularly the use of Capcellpak C18, 120 angstroms, 5 μm, 4.6 mm×150 mm (Shiseido) is desirable.
The mobile phase is 5 mM sodium dodecyl sulfate (hereinafter abbreviated as SDS) aqueous solution (pH 2.5, phosphoric acid)/acetonitrile, and a gradient method for changing the composition with the lapse of time is used for analysis. That is, the acetonitrile content in the mobile phase is kept at 31 vol % from the start of analysis to 15 minutes later, and the acetonitrile content is then increased at a constant rate up to 45 vol %, taking 10 minutes, being kept at 45 vol % from 25 minutes later to 40 minutes later. The detector used is a UV measuring instrument, and the detection wavelength is 210 nm. The detection wavelength is very important, and if the detection wavelength is changed, the analyzed value may change. The reason is that the maximum wavelength of UV absorption changes depending on the compound. In this system, it is desirable that the wavelength is from 210 to 230 nm at which the ratios of the absorption sensitivity of the compound represented by the general formula (2) to the absorption sensitivities the compounds represented by the general formulae (5) to (8) are from 0.6 to 1.5. Analysis is made at a column oven temperature of 40° C. In the case where analysis is made under the above-mentioned analytical conditions, the retention times of 1-benzyloxycarbonyl-3-methylpiperazine and the impurities corresponding to the general formulae (5) to (8), i.e., 1,4-bis(carbobenzyloxy)-2-methylpiperazine, 1-benzyl-3-methylpiperazine, 4-benzyloxycarbonyl-1-benzyl-2-methylpiperazine and benzyl alcohol were 23.1 minutes, 31.0 minutes, 31.0 minutes, 30.0 minutes and 2.7 minutes respectively. The values of their area percentages can be used to obtain the impurity contents.

[2] = cited from earlier work

Row | SMILES | Liquid chromatography purity of decomposition product 1-benzyl-4-benzyloxycarbonyl-2-methylpiperazine after standing ([1]; 120° C. for 12 hours) | Liquid chromatography purity after standing ([1]; 120° C. for 12 hours, starting purity 99.3 liquid chromatography area %) | Liquid chromatography purity after standing ([1]; 160° C. for 1 hour) | Liquid chromatography purity of decomposition product 1-benzyl-4-benzyloxycarbonyl-2-methylpiperazine after standing ([1]; 160° C. for 12 hours) | Liquid chromatography purity after standing ([1]; 160° C. for 12 hours, starting purity 99.3 liquid chromatography area %) | Liquid chromatography purity of decomposition product 1-benzyl-4-benzyloxycarbonyl-2-methylpiperazine after standing ([1]; 200° C. for 12 hours) | Liquid chromatography purity after standing ([1]; 200° C. for 12 hours, starting purity 99.3 liquid chromatography area %) | pKa [2]
1 | CC1CN(C(=O)OCc2ccccc2)CCN1 (stereo not drawn) [1-benzyloxycarbonyl-3-methylpiperazine] | 0.2 liquid chromatography area % | 99.0 liquid chromatography area % | 98.8 liquid chromatography area % | 3.2 liquid chromatography area % | 95.6 liquid chromatography area % | 30.7 liquid chromatography area % | 59.7 liquid chromatography area % | 
2 | COc1ccccn1 [2-methoxypyridine] |  |  |  |  |  |  |  | 6.62
3 | c1cn[nH]c1 [pyrazole] |  |  |  |  |  |  |  | 2.5

— patent US7569690B2, “Process for producing oxycarbonyl-substituted piperazine derivative” (Toray Fine Chemicals Co., Ltd., priority 2002, dated 2009)
